Reference: US12433853B2, “Rationally designed lawsone derivatives as antimicrobials against multidrug-resistant Staphylococcus aureus” (KENT STATE UNIVERSITY, priority 2019, dated 2025)
In brackets after ≈: the same amount, converted by molar mass.

Columns and labels:
MRSA = experiment: Non-lethal systemic infection model, i.p. treatment; format: in vivo, mice (C57BL/6); details: single dose 15 mg/kg i.p. at day 1 post-infection, CFU at day 2; p<0.05
Description: FIG. 8 is a chart showing the effect of the treatment of 6c (via i.p injection, […]) on the bacterial burden in lung (b), spleen (c), kidney (d), liver (e), and peritoneal (f) tissues of mice (C57BL/6 mice, male, 8-12 weeks old) infected by MRSA (mean±s·d, n=8 mice per group). The CFU counts from homogenized tissue collected from each mouse was run in duplicates. *: p<0.05, **: p<0.01, and ***: p<0.001.
(§1) To validate the in vivo antibacterial efficacy, we conducted the studies of treating the infections of local wound infection as well as non-lethal systemic infection induced by MRSA. For local infection, a full-thickness, circular wound was generated on the dorsal surface of each mouse (C57BL/6) using a 6-mm sterile biopsy punch after the mouse was anesthetized, followed by inoculating with 1×10^6 CFU MRSA (ATCC BAA-44) in the wounded skin at day 0 and then a defined amount of 6c or vancomycin (80 μg in 40 μL sterile saline per wound) was topically applied once to the wounds of mice at day 1 post-infection. The CFU number of viable bacteria in the wound was quantified at day 2 post-infection. […] The CFU number of viable bacteria was counted at day 2 post-infection from major organs including lung, kidney, spleen, liver, and peritoneal tissues. […]

[1] = tested on: MSSA (ATCC 29213 and ATCC 6538); experiment: MIC by broth microdilution (CLSI) against MSSA; format: cell-based, Staphylococcus aureus; details: two strains of MSSA
Procedure: (§2) The MICs were determined by the broth microdilution method by following Clinical and Laboratory Standards Institute (CLSI) guidelines
(§3) Spectroscopic characterization and X-ray structural determination unequivocally confirmed the identities of all the five new compositions of matter, that is compounds denoted as 6a through 6e.

MRSA^vanR = experiment: MIC against vancomycin-resistant mutant MRSA from day 56 passage (cross-resistance); format: cell-based; details: Staphylococcus aureus
Procedure: (§4) Typical clinical antibiotics can readily produce genetic mutants when used to treat the same bacterial over and over again, which is the major cause of antibiotic drug resistance in many pathogenic bacteria these days and of emergence of superbugs. To test if 6c can develop drug resistance in either MSSA (ATCC 29213) or MRSA (ATCC BAA-44), we performed sequential passaging studies with 6c. Briefly, the MIC values for S. aureus strains to be tested were determined first. Then, cells grown in the initial MIC dose of the compound or antibiotics from the previous passage were once again harvested after 24-h incubation period and assayed for a new MIC. The process was repeated for 56 passages against MRSA (ATCC BAA-44).

MRSA (ATCC BAA-44) [2] = experiment: Sequential passaging drug resistance development study in MRSA; format: cell-based, Staphylococcus aureus; details: for MIC: Staphylococcus aureus, read-out: initial MIC
Description: FIG. 4 is a chart showing the drug resistance development of 6c in comparison with vancomycin and ofloxacin in MRSA (ATCC BAA-44);
as §4

MRSA^oflR = experiment: MIC against ofloxacin-resistant mutant MRSA from day 56 passage (cross-resistance); format: cell-based; details: Staphylococcus aureus
Procedure: as §4

MRSA (ATCC BAA-44) [3] = experiment: Checkerboard assay of 6c with oxacillin; format: cell-based, Staphylococcus aureus; details: 6c combined with oxacillin
Procedure: MIC of oxacillin in the presence of 0.6 μg/mL of 6c. ^bMIC of 6c in the presence of 4 μg/mL of oxacillin. The MICs were determined by the broth microdilution method by following Clinical and Laboratory Standards Institute (CLSI) guidelines.
The checkerboard assay was performed in a 96-well plate using the established method. Specifically, the antibiotic oxacillin was 2-fold serially diluted along the row-axis and 6c was 2-fold serially diluted along the column-axis to create a matrix in which each well consists of a combination of both at different concentrations. Each well was inoculated with MRSA (ATCC BAA-44) to yield approximately 5×10^5 CFU/mL in a 100-μL final volume, incubated for 20 h at 37° C. and examined for visibility to determine the MIC. Dividing the MIC of 6c in the presence of antibiotic by the MIC of 6c alone was used to calculate the fractional inhibitory concentration (FIC) of 6c. Similarly, dividing the MIC of antibiotic in the presence of 6c by the MIC of the antibiotic alone was used to calculate the fractional inhibitory concentration (FIC) of the antibiotic. The FIC index was calculated by the summation of both FIC values. The FIC index was interpreted as synergistic, additive, or antagonistic for values of x≤0.5, 0.5<x<4, or ≥4, respectively.

MRSA (ATCC BAA-44) [4] = experiment: Local wound infection model, topical treatment; format: in vivo, mice (C57BL/6); details: single topical dose 80 μg per wound at day 1 post-infection, CFU at day 2
Procedure: FIG. 7 is a chart showing the effect of the treatment of 6c or vancomycin (via topical treatment, single dose at 80 μg per wound) on the bacterial burden in wounds of mice (C57BL/6 mice, male, 8-12 weeks old) infected by MRSA at day 2 post-wounding (mean±s·d, n=3 mice per group). The CFU counts from homogenized tissue collected from each mouse was run in duplicates. *: p<0.05 vs control;
as §1

[5] = tested on: MRSA (ATCC BAA-44 and ATCC BAA-1717); experiment: microbe, parasite or virus in culture; format: cell-based, Staphylococcus aureus
Procedure: as §2, §3

[6] = tested on: vancomycin-intermediate and daptomycin non-susceptible strain of MRSA (ATCC 700699); experiment: MIC by broth microdilution (CLSI) against vancomycin-intermediate, daptomycin non-susceptible MRSA; format: cell-based; details: Staphylococcus aureus, ATCC 700699 / MRSA / VISA
Procedure: as §2, §3

MSSA (ATCC 29213) = experiment: Sequential passaging drug resistance development study in MSSA; format: cell-based, Staphylococcus aureus; details: MSSA ATCC 29213, sequential passaging, vs vancomycin and ciprofloxacin
Description: FIG. 5 is a chart showing the drug resistance development of 6c in comparison with vancomycin and ciprofloxacin in MSSA (ATCC SA 29213);
as §4

[7] = tested on: biofilm formed by MRSA (ATCC BAA-44); experiment: Biofilm inhibition assay; format: cell-based, Staphylococcus aureus; details: 24 h
Procedure: FIG. 6 is a chart showing the effect of 6c on the inhibition of biofilm formed by MRSA (ATCC BAA-44). Percentage of viable bacteria in the biofilm formed by MRSA in response to the treatment of Lawsone-derivatives (6a, 6b, 6c, 6d, and 6e) at varying concentrations (0-30 μM) (mean±s·d, n=3 independent experiments);
By observing the antibacterial efficacy of 6c against planktonic phase of MRSA, we next examined whether 6c could be effective against biofilm phase of MRSA. For this, the biofilm inhibition assay was performed using the established procedure. […] For the quantification of biofilm mass, the solutions in the plate with biofilm were replaced with a 100 μL solution containing 0.5% of crystal violet and incubated for 30 min at room temperature in the dark. […] The absorbance of the biofilm was measured at 595 nm using a microplate reader and the results were expressed as percentage changes with respect to the control (without compounds). For the quantification of the number of viable bacteria in the biofilm, the biofilms were gently destroyed and plated on TSA after serial dilutions of each suspension. The number of viable bacteria in the sample was obtained using agar plate counting method as described above and results were expressed as percentage changes with respect to the control.

[8] = at 56 passages (end of measurements)

CCCCc1ccc(CC2=C(O)C(=O)c3ccccc3C2=O)cc1 [6c, 2-[(4-butylphenyl)methyl]-3-hydroxy-[1,4]naphthoquinone]
bacterial burdens in kidney, liver, and peritoneal tissues vs vehicle control (MRSA): significantly reduced | antimicrobial activity (MIC) compared with ofloxacin and ciprofloxacin [1]: comparable | MIC (MRSA^vanR): 5 µg/mL (≈ 15.6 µM) | MIC (MRSA (ATCC BAA-44) [2]): 1.25 µg/mL (≈ 3.9 µM) | increase of MIC (MRSA (ATCC BAA-44) [2]; [8]): 4 fold | change of MIC (MRSA (ATCC BAA-44) [2]; up to 33 passages): largely unchanged | MIC (MRSA^oflR): 1.25 µg/mL (≈ 3.9 µM) | FIC index interpretation (MRSA (ATCC BAA-44) [3]): synergistic (x≤0.5) | FIC (MRSA (ATCC BAA-44) [3]; MRSA ATCC BAA-44, 20 h): 0.31 | reduction of MRSA numbers (CFU) in the wound vs control (MRSA (ATCC BAA-44) [4]): 60% | MIC ([5]; Staphylococcus aureus): 1.25 to 2.5 µg/mL (≈ 3.9 to 7.8 µM) | MIC [6]: 1.25 to 2.5 µg/mL (≈ 3.9 to 7.8 µM) | drug resistance profile (MSSA (ATCC 29213)): improved drug resistance profile | suppression of biofilm formation ([7]; dose of 1×MIC (5 μM or 1.5 μg/mL)): 40% | suppression of biofilm formation ([7]; dose of 3×MIC (15 μM or 4.5 μg/mL)): 90%

CN[C@H](CC(C)C)C(=O)N[C@H]1C(=O)N[C@@H](CC(N)=O)C(=O)N[C@H]2C(=O)N[C@H]3C(=O)N[C@H](C(=O)N[C@H](C(=O)O)c4cc(O)cc(O)c4-c4cc3ccc4O)[C@H](O)c3ccc(c(Cl)c3)Oc3cc2cc(c3O[C@@H]2O[C@H](CO)[C@@H](O)[C@H](O)[C@H]2O[C@H]2C[C@](C)(N)[C@H](O)[C@H](C)O2)Oc2ccc(cc2Cl)[C@H]1O [vancomycin]
MIC (MRSA (ATCC BAA-44) [2]): 1 µg/mL (≈ 0.69 µM) | increase of MIC (MRSA (ATCC BAA-44) [2]; [8]): 128 fold | increase of MIC (MRSA (ATCC BAA-44) [2]; by 51 passages): 4 fold | reduction of MRSA numbers (CFU) in the wound vs control (MRSA (ATCC BAA-44) [4]): ~50% | MIC ([5]; Staphylococcus aureus): ~1 µg/mL (≈ 0.69 µM)

CCCCCCCCCC(=O)N[C@@H](Cc1c[nH]c2ccccc12)C(=O)N[C@H](CC(N)=O)C(=O)N[C@@H](CC(=O)O)C(=O)N[C@@H]1C(=O)NCC(=O)N[C@@H](CCCN)C(=O)N[C@@H](CC(=O)O)C(=O)N[C@H](C)C(=O)N[C@@H](CC(=O)O)C(=O)NCC(=O)N[C@H](CO)C(=O)N[C@@H]([C@H](C)CC(=O)O)C(=O)N[C@@H](CC(=O)c2ccccc2N)C(=O)O[C@@H]1C [daptomycin]
MIC ([5]; MRSA ATCC BAA-44 and ATCC BAA-1717, broth microdilution): ~1 µg/mL (≈ 0.617 µM)

CC1COc2c(N3CCN(C)CC3)c(F)cc3c(=O)c(C(=O)O)cn1c23 (stereo not shown) [ofloxacin]
MIC (MRSA (ATCC BAA-44) [2]): 8 µg/mL (≈ 22.1 µM) | increase of MIC (MRSA (ATCC BAA-44) [2]; after 5 passages): 4 fold | increase of MIC (MRSA (ATCC BAA-44) [2]; at 35 passages): 32 fold | increase of MIC (MRSA (ATCC BAA-44) [2]; [8]): 64 fold
